For orientation: inhibition means the drop in the measured response relative to a control, in per cent.

From patent publication US20250025438A1, “Derivative of aspartic acid and use thereof in treatment of metabolic diseases such as hepatic fibrosis and non-alcoholic hepatitis” (SHENZHEN JINGTAI TECHNOLOGY CO., LTD., priority 2021, published 2025) come the findings set out here.

Structures can show the parent of a compound that is named as a salt. Where a SMILES comes first, the peptide text is derived from it.

Holding throughout (format): cell-based
The subject of one assay is IL-1β. Briefly: In vitro efficacy in semi-activated LX2 cells, qPCR: IL-1β. The note with it: 48 hours, Q-PCR; for inhibition at 50 µM: Homo sapiens, LX-2, 50 µM, read-out: IL-1β mRNA inhibition rate. The protocol: (§1) Test compounds were added to the LX-2 cells respectively, and total RNA in the cells was extracted 48 hours later. This experiment was performed strictly in accordance with the instructions of the Total RNA Kit. The steps were as follows (note: this experiment was performed on ice throughout the entire process, and special RNase-free tips were used throughout the entire process): • 1) The 12-well cell culture plate was taken out from the incubator, the cell culture medium was discarded, the cells were washed twice with 1 mL of 1×PBS, and a negative pressure suction device was used to fully remove PBS; • 2) 350 μL of TRK Lysis Buffer mixture/well was prepared as needed (mixture preparation method: 1 mL of TRKLysis Buffer+20 μL of β-mercaptoethanol), vortexed and mixed well. 350 μL was added to each well of the 12-well cell culture plate, and allowed to stand at room temperature for 5 minutes to fully lyse the cells; • 3) 70% ethanol/well was prepared as needed, vortexed and mixed well. 350 μL was added to each well of the 12-well cell culture plate, mixed well by shaking, and transferred to the spin column (spin column+collection tube were assembled); • 4) Centrifugation was performed at 4° C., 12000 g for 60 sec. The waste liquid was discarded after centrifugation, while the spin column was kept; • 5) 500 μL of RNA Wash Buffer I was added, centrifuged at 4° C., 12000 g for 60 sec, the waste liquid was discarded after centrifugation, and the collection column was kept; • 6) 500 μL of RNA Wash Buffer II (confirmed that ethanol had been added) was added, centrifuged at 4° C., 12000 g for 60 sec, the waste liquid was discarded after centrifugation, and the collection column was kept; • 7) step 6) was repeated once again, centrifugation was performed at 4° C., 12000 g for 90 sec, the waste liquid was discarded after centrifugation, and the collection column was kept; • 8) Centrifugation was performed at 4° C., 12000 g for 120 sec to ensure that the spin column was fully dried; • 9) The dried spin column was inserted into a new 1.5 mL EP tube, and 30 μL of DEPC water was added to the membrane in the center of the spin column. It should be careful not to touch the EP tube cover in this step. It was allowed to stand at room temperature for 5 minutes to ensure that the RNA was fully dissolved in DEPC water. Centrifugation was performed at 4° C., 12000 g for 60 sec, and the EP tube was kept; • 10) NanoDrop ultra-micro-volume spectrophotometer was used to detect RNA concentration;
(§2) 5.2 Reverse transcription of RNA into cDNA: According to the instructions of PrimeScript™ RT reagent Kit (Perfect Real Time), the specific experimental steps were as follows:
(§3) 5.3 Q-PCR detection of target gene expression: According to the instructions of Power SYBR® Green PCR Master Mix, the specific operations were as follows:
(§4) After the reaction was completed, the amplification curve and dissolution curve of Q-PCR were confirmed, and the relative quantification method ([…]) was used to perform data analysis on the experimental results.
(§5) LX2 cells were passaged and plated normally. […] After 48 hours, the cells were collected, total RNA was extracted, and Q-PCR was used to detect the changes in the mRNA expression levels of liver fibrosis-related genes (ACTA2 encoding α-SMA, COL1A1 and COLIA2 encoding collagen I, COL3A1 encoding collagen III, SMAD3 encoding Smad3) and inflammation-related genes (IL1β encoding IL-1β, TNFα encoding TNFα) (for specific methods, see 5. Q-PCR detection of target gene expression as described above). α-SMA was a marker of hepatic stellate cell activation, and collagen I and collagen III were the main components of extracellular matrix deposition.
Background: Real-time PCR tracks product formation cycle by cycle.

Another assay concerns TNF-α. Kind of assay: In vitro efficacy in semi-activated LX2 cells, qPCR: TNF-α. The following applies: Q-PCR; for inhibition at 50 µM: Homo sapiens, LX-2, 48 hours, read-out: TNF-α mRNA inhibition rate. The protocol:
as §1, §2, §3, §4
(§6) LX2 cells were passaged and plated normally. After adherent growth for 12 hours, 50 µM of the test compound was added. After 48 hours, the cells were collected, total RNA was extracted, and Q-PCR was used to detect the changes in the mRNA expression levels of liver fibrosis-related genes (ACTA2 encoding α-SMA, COL1A1 and COLIA2 encoding collagen I, COL3A1 encoding collagen III, SMAD3 encoding Smad3) and inflammation-related genes (IL1β encoding IL-1β, TNFα encoding TNFα) (for specific methods, see 5. Q-PCR detection of target gene expression as described above). α-SMA was a marker of hepatic stellate cell activation, and collagen I and collagen III were the main components of extracellular matrix deposition.

Assay [1] relates to collagen I and collagen III. Kind of assay: Semi-activated LX2 cells, qPCR: collagen I and collagen III at the mRNA level. The note with it: 48 hours, Q-PCR, Table 2. The protocol: as §1, §3
as §6, with “deposition. […]” for “deposition.”

The test system of the next assay is α-SMA. Briefly: In vitro efficacy in semi-activated LX2 cells, qPCR: α-SMA. The following applies: 48 hours, Q-PCR; for inhibition at 50 µM: read-out: α-SMA mRNA inhibition rate; for inhibition of the expression of α-SMA at the mRNA level: Table 2. On the procedure: as §1, §2, §3, §4, §5
In the next assay the test system is COL3A1. Kind of assay: In vitro efficacy in semi-activated LX2 cells, qPCR: COL3A1. The following applies: 48 hours, Q-PCR; for inhibition at 50 µM: Homo sapiens, LX-2, 50 µM, read-out: COL3A1 mRNA inhibition rate. On the procedure:
as §1, §2, §3, §4, §5

The subject of a further assay is Smad3. Kind of assay: In vitro efficacy in semi-activated LX2 cells, qPCR: Smad3. The note with it: 48 hours, Q-PCR; for inhibition at 50 µM: Homo sapiens, LX-2, 50 µM, read-out: Smad3 mRNA inhibition rate. On the procedure:
as §1, §2, §3, §4, §5

For another assay, the system named is COL1A2. Kind of assay: In vitro efficacy in semi-activated LX2 cells, qPCR: COL1A2. The note with it: Homo sapiens, LX-2, 48 hours, Q-PCR, read-out: COL1A2 mRNA inhibition rate. The protocol:
as §1, §2, §3, §4, §6

For a further assay, the system named is COL1A1. Kind of assay: In vitro efficacy in semi-activated LX2 cells, qPCR: COL1A1. The following applies: 48 hours, Q-PCR; for inhibition at 50 µM: Homo sapiens, LX-2, 50 µM, read-out: COL1A1 mRNA inhibition rate. The protocol: as §1, §2, §3, §4, §5

With `O=C(O)C[C@H](NC(=O)OCc1ccccc1)C(=O)O` [Compound 2], the inhibition at 50 µM in the assay on IL-1β fell in the range of 1 to 10%; in the assay on TNF-α, 10 to 25%; in the assay on α-SMA, 1 to 10%; in the assay on COL3A1, 10 to 25%; in the assay with Smad3, 1 to 10%; in the assay on COL1A2, 1 to 10%. The inhibition at 50 µM with COL1A1 was 25 to 50%. Further, in assay [1], the “inhibition of the expression of collagen I and collagen III at the mRNA level” value was “could inhibit”.

In the case of `C=CCOC(=O)[C@H](CC(=O)O)NC(=O)OCC1c2ccccc2-c2ccccc21` [Compound 10], the inhibition at 50 µM in the assay on IL-1β was in the range of 1 to 10%; in the assay with TNF-α, 10 to 25%; with α-SMA, 1 to 10%; with COL3A1, 10 to 25%; with Smad3 it was 1 to 10%; in the assay on COL1A2 it was 1 to 10%. Besides, in the assay with COL1A1, the inhibition at 50 µM lay in the range of 1 to 10%. The “inhibition of the expression of collagen I and collagen III at the mRNA level” value in assay [1] is recorded as “could inhibit”.

Turning to `CC(C)(C)OC(=O)C[C@H](N)C(=O)O` [Compound 13], the inhibition at 50 µM in the assay with IL-1β, in the assay with TNF-α, with α-SMA and in the assay with COL1A2 was 1 to 10% in each case.

For `CC(C)(C)OC(=O)C[C@H](NC(=O)OCC1c2ccccc2-c2ccccc21)C(=O)O` [Compound 18], in assay [1], the “inhibition of the expression of collagen I and collagen III at the mRNA level” value is recorded as “could inhibit”. For the same compound, the inhibition at 50 µM in the assay with COL3A1 was in the range of 1 to 10%; in the assay with COL1A2, 1 to 10%; in the assay on COL1A1, 10 to 25%.

For `CN(C(=O)OCC1c2ccccc2-c2ccccc21)[C@@H](CC(=O)OC(C)(C)C)C(=O)O` [Compound 19], the “inhibition of the expression of collagen I and collagen III at the mRNA level” value in assay [1] was “could inhibit”. Also, the inhibition at 50 µM with COL3A1, in the assay with COL1A2 and in the assay with COL1A1 was 10 to 25% in each case.

With `N[C@@H](CC(=O)OC1CCCCC1)C(=O)O` [Compound 23], the inhibition at 50 µM in the assay on IL-1β, with TNF-α, in the assay with COL3A1, in the assay with Smad3, in the assay on COL1A2 and with COL1A1 was 1 to 10% in each case.

Take `NCC(=O)N[C@@H](CC(=O)O)C(=O)O` [Compound 28] (H-Gly-Asp-OH): the inhibition at 50 µM with IL-1β lay within 10 to 25%; with TNF-α, 1 to 10%; in the assay on α-SMA it was 10 to 25%; in the assay with COL3A1, 10 to 25%; in the assay on Smad3 it was 10 to 25%; with COL1A2, 1 to 10%. For the same compound, in the assay with COL1A1, the inhibition at 50 µM lay in the range of 10 to 25%. In addition, the “inhibition of the expression of collagen I and collagen III at the mRNA level” value in assay [1] was “could inhibit”. Also, the “inhibition of the expression of α-SMA at the mRNA level” value (“inhibition of the expression of α-SMA” below) in the assay with α-SMA is on record as “could inhibit”. Also, the “inhibition of the expression of Smad3 at the mRNA level” value in the assay with Smad3 (Table 2) is reported as “could inhibit”.

Turning to `O=CN[C@@H](CC(=O)O)C(=O)O` [Compound 29], the inhibition at 50 µM with α-SMA, in the assay with COL1A2 and in the assay with COL1A1 was 1 to 10% each time.

Regarding `CC(=O)N[C@@H](CC(=O)O)C(=O)O` [Compound 30], the inhibition at 50 µM lay in the range of 10 to 25% in the assay with IL-1β, 1 to 10% in the assay with α-SMA, 1 to 10% with COL1A2 and 25 to 50% with COL1A1. Moreover, in assay [1], the “inhibition of the expression of collagen I and collagen III at the mRNA level” value is listed as “could inhibit”.

Regarding `CNC(=O)C[C@H](N)C(=O)O` [Compound 33], the inhibition at 50 µM with IL-1β is 1 to 10%; with α-SMA it was 25 to 50%; in the assay with COL3A1, 1 to 10%; in the assay on Smad3, 1 to 10%; in the assay on COL1A2 it was 1 to 10%; in the assay with COL1A1 it was 25 to 50%. The “inhibition of the expression of collagen I and collagen III at the mRNA level” value in assay [1] is recorded as “could inhibit”. The “inhibition of the expression of α-SMA” value in the assay with α-SMA is recorded as “could inhibit”.

Regarding `N[C@@H](CC(=O)O)C(=O)N[C@@H](Cc1ccccc1)C(=O)O` [Compound 39] (H-Asp-Phe-OH), the inhibition at 50 µM in the assay on TNF-α, in the assay with COL3A1 and with COL1A2 was 1 to 10% each time.

`CC(C)(C)OC(=O)[C@@H](N)CC(=O)OCc1ccccc1.Cl` [Compound 42]: in the assay on IL-1β (50 µM), the “IL-1β mRNA inhibition rate” value was “E (E represented that the inhibition rate was 1% to 10%)”. Besides, the “TNF-α mRNA inhibition rate” value in the assay on TNF-α (50 µM, 48 hours) is reported as “D (D represented that the inhibition rate was 10% to 25%)”. In addition, the “inhibition of the expression of collagen I and collagen III at the mRNA level” value in assay [1] is “could inhibit”. Also, the “COL3A1 mRNA inhibition rate” value with COL3A1 (50 µM) is “E (E represented that the inhibition rate was 1% to 10%)”. Further, the “Smad3 mRNA inhibition rate” value with Smad3 (50 µM) was “E (E represented that the inhibition rate was 1% to 10%)”. Further, in the assay with COL1A1 (50 µM), the “COL1A1 mRNA inhibition rate” value is recorded as “C (C represented that the inhibition rate was 25% to 50%)”.

As to `CC(C)OC(=O)OCOC(=O)[C@H](Cc1ccccc1)NC(=O)[C@@H](N)CC(=O)O` [Compound 53, (S)-3-amino-4-(((S)-1-(((isopropoxycarbonyl)oxy)methoxy)-1-oxo-3-phenylpropan-2-yl)amino)-4-oxobutyric acid hydrochloride], the “inhibition of the expression of collagen I and collagen III at the mRNA level” value in assay [1] is “could inhibit”. For the same compound, the inhibition at 50 µM in the assay with α-SMA lay in the range of 10 to 25%; in the assay with COL3A1 it was 10 to 25%; in the assay with COL1A2, 1 to 10%; with COL1A1 it was 10 to 25%. Also, the “inhibition of the expression of α-SMA” value in the assay with α-SMA was “could inhibit”.

`CCC(=O)N[C@@H](CC(=O)O)C(=O)O` [Compound 58, propionyl-L-aspartic acid]: the inhibition at 50 µM with IL-1β, in the assay on α-SMA, with COL3A1 and in the assay with COL1A2 was 1 to 10% in each case.

Take `COC(=O)N[C@@H](CC(=O)O)C(=O)O` [Compound 61, (methoxycarbonyl)-L-aspartic acid]: the inhibition at 50 µM fell in the range of 1 to 10% in the assay with IL-1β; 1 to 10% in the assay on TNF-α; 1 to 10% with COL3A1; 1 to 10% in the assay with Smad3; 1 to 10% in the assay with COL1A2; 25 to 50% in the assay with COL1A1. In addition, in assay [1], the “inhibition of the expression of collagen I and collagen III at the mRNA level” value is listed as “could inhibit”.
